Data on four compounds can be found in paper PMC7252619 (PLoS ONE, 2020).

“And” between values parts separate entries of the source, which are not always exact repeats. Equal entries are not always repeated. Where two headings read alike, the source gives them in different places.

Holding throughout (assay): Kinase activity test (ReactionBiology), % enzyme activity relative to DMSO
Common to all, as to format: biochemical

For one experiment, the target named is T1, DAPK1 (Homo sapiens, UniProt P53355).
T1 construct: purchased ReactionBiology
T1 sequence (P53355 whole entry): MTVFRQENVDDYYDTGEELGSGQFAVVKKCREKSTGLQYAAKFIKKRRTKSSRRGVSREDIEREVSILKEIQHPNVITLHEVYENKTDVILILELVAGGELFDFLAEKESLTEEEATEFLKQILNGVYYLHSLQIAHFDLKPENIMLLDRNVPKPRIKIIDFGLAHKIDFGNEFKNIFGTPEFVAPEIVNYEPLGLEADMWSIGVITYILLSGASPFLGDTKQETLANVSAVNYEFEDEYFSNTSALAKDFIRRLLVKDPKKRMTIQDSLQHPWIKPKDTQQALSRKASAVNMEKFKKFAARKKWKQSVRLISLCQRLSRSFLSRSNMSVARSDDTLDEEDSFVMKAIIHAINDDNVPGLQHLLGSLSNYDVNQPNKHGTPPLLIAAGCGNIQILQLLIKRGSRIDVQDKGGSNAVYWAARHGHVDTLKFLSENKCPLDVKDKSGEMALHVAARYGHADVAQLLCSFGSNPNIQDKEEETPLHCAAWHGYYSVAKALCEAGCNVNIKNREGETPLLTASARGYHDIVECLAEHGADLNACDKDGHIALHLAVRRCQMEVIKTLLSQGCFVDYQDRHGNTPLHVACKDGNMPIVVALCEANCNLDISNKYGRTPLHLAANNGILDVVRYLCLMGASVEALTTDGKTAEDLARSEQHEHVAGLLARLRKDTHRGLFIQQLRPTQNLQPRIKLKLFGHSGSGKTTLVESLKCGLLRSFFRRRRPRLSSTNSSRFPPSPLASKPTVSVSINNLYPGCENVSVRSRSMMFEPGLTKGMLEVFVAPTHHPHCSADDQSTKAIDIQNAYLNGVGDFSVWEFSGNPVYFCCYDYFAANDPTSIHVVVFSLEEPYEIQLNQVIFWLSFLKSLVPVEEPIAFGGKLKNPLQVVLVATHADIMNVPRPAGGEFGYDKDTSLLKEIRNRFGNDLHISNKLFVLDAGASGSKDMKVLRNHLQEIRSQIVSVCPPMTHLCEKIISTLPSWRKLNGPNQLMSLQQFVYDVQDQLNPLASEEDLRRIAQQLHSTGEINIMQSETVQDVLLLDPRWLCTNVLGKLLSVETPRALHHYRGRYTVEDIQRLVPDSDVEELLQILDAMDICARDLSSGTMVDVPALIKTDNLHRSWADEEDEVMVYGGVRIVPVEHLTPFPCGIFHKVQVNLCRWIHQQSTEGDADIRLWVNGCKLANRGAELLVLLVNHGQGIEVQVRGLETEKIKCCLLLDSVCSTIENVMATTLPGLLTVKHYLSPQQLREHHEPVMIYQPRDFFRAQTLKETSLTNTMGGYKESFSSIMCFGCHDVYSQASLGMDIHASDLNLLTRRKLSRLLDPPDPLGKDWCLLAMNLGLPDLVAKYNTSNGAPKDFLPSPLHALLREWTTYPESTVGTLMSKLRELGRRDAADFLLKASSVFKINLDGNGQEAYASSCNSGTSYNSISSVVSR
The conditions noted are these: for remaining activity at 1 µM / remaining activity at 10 µM: DAPK1.

For the next experiment, the target named is T2, MST-4 (Homo sapiens, UniProt Q9P289).
T2 construct: purchased ReactionBiology
T2 sequence (Q9P289 whole entry): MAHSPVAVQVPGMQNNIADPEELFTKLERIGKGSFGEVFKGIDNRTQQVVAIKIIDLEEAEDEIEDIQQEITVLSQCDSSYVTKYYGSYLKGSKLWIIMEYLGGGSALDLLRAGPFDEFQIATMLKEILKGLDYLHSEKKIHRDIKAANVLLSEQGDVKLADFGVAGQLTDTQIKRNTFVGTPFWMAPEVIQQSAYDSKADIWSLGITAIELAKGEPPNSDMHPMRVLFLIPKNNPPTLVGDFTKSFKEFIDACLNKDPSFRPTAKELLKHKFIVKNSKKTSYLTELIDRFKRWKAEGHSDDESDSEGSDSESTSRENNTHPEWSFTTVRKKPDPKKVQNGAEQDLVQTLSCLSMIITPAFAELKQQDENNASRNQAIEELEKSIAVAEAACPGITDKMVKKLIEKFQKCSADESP
The note with it: for % Enzyme Activity (relative to DMSO controls), Average / % Enzyme Activity (relative to DMSO controls), Data 1 / % Enzyme Activity (relative to DMSO controls), Data 2: MST4; for % Enzyme Activity (relative to DMSO controls), Data 1: replicate Data 1; for % Enzyme Activity (relative to DMSO controls), Data 2: replicate Data 2.

The next experiment deals with VEGFR2 (Homo sapiens, UniProt P35968). Details: purchased ReactionBiology. The conditions noted are these: VEGFR2.
Chain of VEGFR2 (P35968 20-1356): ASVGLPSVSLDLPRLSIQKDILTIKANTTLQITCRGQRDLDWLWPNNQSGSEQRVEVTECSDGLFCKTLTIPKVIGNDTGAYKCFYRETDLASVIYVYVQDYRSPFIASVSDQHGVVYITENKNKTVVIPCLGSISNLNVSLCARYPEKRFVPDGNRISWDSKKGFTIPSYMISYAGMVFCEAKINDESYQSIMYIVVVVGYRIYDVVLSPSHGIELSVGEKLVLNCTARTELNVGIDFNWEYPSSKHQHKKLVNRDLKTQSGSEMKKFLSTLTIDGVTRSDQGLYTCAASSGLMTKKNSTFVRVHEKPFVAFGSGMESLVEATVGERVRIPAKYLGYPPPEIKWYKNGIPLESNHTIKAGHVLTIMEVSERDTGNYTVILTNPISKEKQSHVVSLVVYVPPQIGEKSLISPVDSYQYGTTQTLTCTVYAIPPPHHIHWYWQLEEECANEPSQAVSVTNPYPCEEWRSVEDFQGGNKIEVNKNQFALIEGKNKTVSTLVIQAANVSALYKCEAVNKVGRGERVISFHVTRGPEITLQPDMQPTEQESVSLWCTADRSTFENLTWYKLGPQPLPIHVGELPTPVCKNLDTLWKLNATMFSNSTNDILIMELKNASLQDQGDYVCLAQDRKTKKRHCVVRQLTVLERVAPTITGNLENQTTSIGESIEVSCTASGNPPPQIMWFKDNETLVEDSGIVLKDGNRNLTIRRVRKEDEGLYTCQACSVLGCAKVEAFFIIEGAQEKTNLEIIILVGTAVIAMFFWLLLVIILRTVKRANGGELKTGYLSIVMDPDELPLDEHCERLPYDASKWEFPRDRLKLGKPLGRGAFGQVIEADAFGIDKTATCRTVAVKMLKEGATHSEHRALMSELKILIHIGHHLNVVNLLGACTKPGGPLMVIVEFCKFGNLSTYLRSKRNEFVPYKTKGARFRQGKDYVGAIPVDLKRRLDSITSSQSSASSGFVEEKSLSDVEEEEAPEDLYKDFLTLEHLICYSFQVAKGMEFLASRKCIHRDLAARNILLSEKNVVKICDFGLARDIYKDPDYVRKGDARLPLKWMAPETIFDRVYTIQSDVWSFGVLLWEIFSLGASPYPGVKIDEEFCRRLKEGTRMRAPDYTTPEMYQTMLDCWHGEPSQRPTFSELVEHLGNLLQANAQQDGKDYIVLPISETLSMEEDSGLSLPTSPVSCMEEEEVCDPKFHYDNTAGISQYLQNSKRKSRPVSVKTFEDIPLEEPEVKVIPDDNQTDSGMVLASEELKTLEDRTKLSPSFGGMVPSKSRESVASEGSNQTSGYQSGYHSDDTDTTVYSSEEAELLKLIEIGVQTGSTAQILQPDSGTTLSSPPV
Another experiment concerns the target T3, NEK2 (Homo sapiens, UniProt P51955).
T3 construct: purchased ReactionBiology
T3 sequence (P51955 1-445): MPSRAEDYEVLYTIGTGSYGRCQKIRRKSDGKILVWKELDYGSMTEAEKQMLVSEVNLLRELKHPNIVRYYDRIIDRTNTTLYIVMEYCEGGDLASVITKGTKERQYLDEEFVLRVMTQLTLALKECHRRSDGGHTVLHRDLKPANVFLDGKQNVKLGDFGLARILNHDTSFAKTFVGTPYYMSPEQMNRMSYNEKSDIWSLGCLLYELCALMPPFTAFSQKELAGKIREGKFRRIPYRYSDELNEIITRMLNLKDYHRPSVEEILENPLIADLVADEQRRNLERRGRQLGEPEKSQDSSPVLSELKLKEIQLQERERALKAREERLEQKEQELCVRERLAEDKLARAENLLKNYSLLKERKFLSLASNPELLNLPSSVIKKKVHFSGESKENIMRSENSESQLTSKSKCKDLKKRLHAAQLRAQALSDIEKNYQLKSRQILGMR
The note with it: NEK2.

A further experiment concerns the target T4, CK1d (Homo sapiens, UniProt P48730).
T4 construct: purchased ReactionBiology
The conditions noted are these: CK1d.

In the next experiment the target is T5, EPHB4 (Homo sapiens, UniProt P54760).
T5 construct: purchased ReactionBiology
T5 sequence (P54760 16-987): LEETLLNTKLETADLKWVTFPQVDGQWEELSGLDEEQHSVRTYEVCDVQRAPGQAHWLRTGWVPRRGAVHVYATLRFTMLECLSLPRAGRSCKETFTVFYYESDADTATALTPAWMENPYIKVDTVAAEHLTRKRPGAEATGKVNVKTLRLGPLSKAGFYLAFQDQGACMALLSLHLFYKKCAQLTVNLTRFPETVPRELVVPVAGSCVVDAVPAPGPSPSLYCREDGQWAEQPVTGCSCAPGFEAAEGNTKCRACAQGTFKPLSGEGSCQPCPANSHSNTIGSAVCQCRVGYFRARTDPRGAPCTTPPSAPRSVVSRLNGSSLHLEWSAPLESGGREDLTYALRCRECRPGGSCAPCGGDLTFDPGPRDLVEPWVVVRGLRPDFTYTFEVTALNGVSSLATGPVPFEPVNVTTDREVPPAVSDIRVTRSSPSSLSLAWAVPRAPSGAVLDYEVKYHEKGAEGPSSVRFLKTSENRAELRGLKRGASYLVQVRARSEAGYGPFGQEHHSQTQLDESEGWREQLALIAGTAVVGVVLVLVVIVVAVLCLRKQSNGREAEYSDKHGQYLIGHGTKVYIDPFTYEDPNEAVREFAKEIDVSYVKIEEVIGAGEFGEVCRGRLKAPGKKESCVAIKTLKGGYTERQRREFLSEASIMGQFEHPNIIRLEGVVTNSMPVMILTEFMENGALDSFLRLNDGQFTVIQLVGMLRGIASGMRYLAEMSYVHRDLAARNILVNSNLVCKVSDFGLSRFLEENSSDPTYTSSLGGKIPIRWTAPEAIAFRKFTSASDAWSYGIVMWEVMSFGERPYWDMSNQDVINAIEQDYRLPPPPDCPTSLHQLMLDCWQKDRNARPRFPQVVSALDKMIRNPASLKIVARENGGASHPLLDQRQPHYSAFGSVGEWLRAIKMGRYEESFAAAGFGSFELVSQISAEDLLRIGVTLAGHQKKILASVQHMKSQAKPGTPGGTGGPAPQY
The note with it: EPHB4.

Setting [1] is: Average, read-out: % Enzyme Activity (relative to DMSO controls), Average.
Setting [2] is: replicate Data 1, read-out: % Enzyme Activity (relative to DMSO controls), Data 1.
Where [3] appears, read: replicate Data 2, read-out: % Enzyme Activity (relative to DMSO controls), Data 2.
[4] abbreviates: 1 uM, Average, read-out: % Enzyme Activity (relative to DMSO controls), Average.
The mark [5] stands for this setting: 1 uM, replicate Data 1, read-out: % Enzyme Activity (relative to DMSO controls), Data 1.
The mark [6] stands for this setting: 1 uM, replicate Data 2, read-out: % Enzyme Activity (relative to DMSO controls), Data 2.
Setting [7] is: 10 uM, Average, read-out: % Enzyme Activity (relative to DMSO controls), Average.
Setting [8] is: 10 uM, replicate Data 1, read-out: % Enzyme Activity (relative to DMSO controls), Data 1.
[9] abbreviates: 10 uM, replicate Data 2, read-out: % Enzyme Activity (relative to DMSO controls), Data 2.
[10] abbreviates: read-out: % Enzyme Activity (relative to DMSO controls), Average.
[11] abbreviates: read-out: % Enzyme Activity (relative to DMSO controls), Data 1.
[12] abbreviates: read-out: % Enzyme Activity (relative to DMSO controls), Data 2.

T4 sequence (P48730 whole entry): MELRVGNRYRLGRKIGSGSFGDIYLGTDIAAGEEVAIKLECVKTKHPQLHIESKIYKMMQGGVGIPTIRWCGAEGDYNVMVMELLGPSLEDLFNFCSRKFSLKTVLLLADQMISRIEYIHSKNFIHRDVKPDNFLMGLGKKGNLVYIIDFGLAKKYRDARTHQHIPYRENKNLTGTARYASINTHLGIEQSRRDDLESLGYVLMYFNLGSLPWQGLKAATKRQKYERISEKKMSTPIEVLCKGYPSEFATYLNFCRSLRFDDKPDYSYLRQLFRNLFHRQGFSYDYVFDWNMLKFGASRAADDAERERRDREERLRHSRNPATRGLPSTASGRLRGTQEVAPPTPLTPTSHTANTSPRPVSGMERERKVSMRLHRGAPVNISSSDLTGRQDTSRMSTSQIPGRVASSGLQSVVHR

In the case of `Oc1ccc(O)cc1` [Hydroquinone], the “% Enzyme Activity (relative to DMSO controls), Average” value is 106.84% and 99.20% on DAPK1; 86.76% on MST-4 (1 uM); 89.91% on MST-4 (10 uM); 108.33% at VEGFR2 (1 uM, Average); 108.92% at VEGFR2 (10 uM, Average). Moreover, the “% Enzyme Activity (relative to DMSO controls), Data 1” value on DAPK1 is 112.42% and 95.43%; on MST-4 (1 uM) it was 90.83%; at MST-4 (10 uM) it was 90.73%; at VEGFR2 (1 uM, replicate Data 1) it was 107.95%; on VEGFR2 (10 uM, replicate Data 1), 109.26%. The “% Enzyme Activity (relative to DMSO controls), Data 2” value was 101.25% and 102.97% on DAPK1; 82.69% at MST-4 (1 uM); 89.08% on MST-4 (10 uM); 108.7% at VEGFR2 (1 uM, replicate Data 2); 108.57% on VEGFR2 (10 uM, replicate Data 2).
With `Cc1cccc(C)c1OCC(=O)N[C@@H](Cc1ccccc1)[C@@H](O)C[C@H](Cc1ccccc1)NC(=O)[C@H](C(C)C)N1CCCNC1=O` [Lopinavir, reference compound], the remaining activity at 1 µM at NEK2 (setting [1]) was determined as 116%; on NEK2 (setting [2]), 118%; on NEK2 (setting [3]) it was 115%; on DAPK1 (setting [4]) it was 90.4%; at DAPK1 (setting [5]), 87.6%; on DAPK1 (setting [6]) it was 93.2%. For the same compound, the remaining activity at 1 µM at DAPK1 (compound 1μM, relative to DMSO controls, read-out: % Enzyme activity at 1μM) was 90.4%; at CK1d (setting [1]), 107%; at CK1d (setting [2]), 111%; at CK1d (setting [3]), 102%; on EPHB4 (setting [1]) it was 92.6%; at EPHB4 (setting [2]) it was 95.6%. Further, the remaining activity at 1 µM at EPHB4 (setting [3]) came out at 89.7%; at VEGFR2 (setting [4]), 104%; on VEGFR2 (setting [5]), 106%; at VEGFR2 (setting [6]), 103%. Also, the remaining activity at 10 µM at NEK2 (setting [1]) came to 88.7%; on NEK2 (setting [2]) it was 98.3%; on NEK2 (setting [3]), 79.2%; at DAPK1 (setting [7]), 49.9%; at DAPK1 (setting [8]), 47.2%; on DAPK1 (setting [9]), 52.5%. Besides, the remaining activity at 10 µM is 49.9% at DAPK1 (compound 10μM, relative to DMSO controls, read-out: % Enzyme activity at 10μM); 109% on CK1d (setting [1]); 113% at CK1d (setting [2]); 105% at CK1d (setting [3]); 87.3% on EPHB4 (setting [1]); 89% on EPHB4 (setting [2]). For the same compound, the remaining activity at 10 µM worked out at 85.7% at EPHB4 (setting [3]), 99% on VEGFR2 (setting [7]), 103% at VEGFR2 (setting [8]) and 95% on VEGFR2 (setting [9]).
With `O=P(O)(O)C(O)(Cc1cnc2ccccn12)P(=O)(O)O` [Minodronic acid], the remaining activity at 1 µM on MST-4 (setting [10]) is 95.6%; on MST-4 (setting [11]), 84.5%; at MST-4 (setting [12]), 107%. Besides, the remaining activity at 10 µM on MST-4 (setting [10]) was determined as 81.5%; at MST-4 (setting [11]) it was 83.7%; at MST-4 (setting [12]), 79.3%.
Consider `O=C(CCCCCCC(=O)Nc1ccccc1)NO` [Vorinostat], for which, on MST-4 (1 uM), the “% Enzyme Activity (relative to DMSO controls), Average” value is on record as 61.30%; the “% Enzyme Activity (relative to DMSO controls), Data 1” value is listed as 64.87%; the “% Enzyme Activity (relative to DMSO controls), Data 2” value is recorded as 57.73%. For the same compound, on MST-4 (10 uM), the “% Enzyme Activity (relative to DMSO controls), Average” value is reported as 101.79%; the “% Enzyme Activity (relative to DMSO controls), Data 1” value was 93.77%; the “% Enzyme Activity (relative to DMSO controls), Data 2” value was determined as 109.8%.
